{"source": "patent US7659333B2", "about": "“Fluorinated surfactants for use in making a fluoropolymer” (3M Innovative Properties Company, priority 2005, dated 2010)", "experiment": "Determination of bio-accumulation: urinary clearance pharmacokinetic study in rats", "format": "in vivo, male Sprague Dawley rats", "procedure": "The goal was to measure the total amount of parent compound eliminated via urinary output and estimate the rate of elimination.\nThe study utilized male Sprague Dawley rats, 6 to 8 weeks of age, and approximately 200 to 250 g body weight at study onset. The test compounds of table 2 were administered at a dose of 73 micro Moles per kg body weight in rats (N=3 animals per tested compound). All test compounds were prepared in sterile deionized water and given to rats via oral gavage. After test compounds administration, the rats were housed individually in metabolism cages for urine collection: 0 to 6 hours, 6 to 24 hours, 24 to 48 hours and 72 to 96 hours. Animals were observed throughout the study for clinical signs of toxicity. Gross necropsy was performed at the termination of each study (96 hours post-dose) with sera and liver samples being retained from each animal.\nThe concentration of the parent compound or metabolites thereof were quantitatively measured via fluorine NMR on each urine sample for each animal at each time point based on internally added standards.\nT ½ and % recovery are based on elimination of the major metabolite—C3F7—O—CHFCOO^−. T1/2 is the renal half-life and is the time required for the amount of a particular substance in a biological system to be reduced to one half of its value by biological processes when the rate of removal is approximately exponential. In these examples the value of T1/2 is calculated by exponential least squares curve fitting (y=Ae^Bx and T1/2=0.693/B) where y represents the concentration of analyte in urine and x represents time in hours.", "data": [{"molecule": "N.O=C(O)C(F)(F)C(F)(F)C(F)(F)C(F)(F)C(F)(F)C(F)(F)C(F)(F)F", "note": "[APFO, ammonium perfluorooctanoic acid]", "values": [{"measurement": "% Recovery (96 h)", "setting": "male Sprague Dawley rats, 73 micro Moles per kg oral gavage, recovery in urine after 96 h, values marked * based on major metabolite C3F7—O—CHFCOO−", "result": 6, "unit": "%"}, {"measurement": "Compound-related Effects", "setting": "male Sprague Dawley rats, 73 micro Moles per kg oral gavage, clinical signs observed, gross necropsy at 96 hours post-dose", "result": "Hepatomegaly"}, {"measurement": "half-life", "setting": "rat, in vivo, 73 micro Moles per kg body weight, male Sprague Dawley rats, 73 micro Moles per kg oral gavage, urine 0-96 h by fluorine NMR, exponential least squares fit, values marked * based on elimination of major metabolite C3F7—O—CHFCOO−, read-out: T ½ (h) (renal half-life)", "result": "~550", "unit": "h"}]}, {"molecule": "C3F7—O—C2HF3—O—CH2—COO^−NH4 [Example 2]", "values": [{"measurement": "parent compound in the urine", "setting": "rat, in vivo, po", "result": "No parent compound observed in the urine"}]}]}
